From patent US10287272B2, “Substituted indazole compounds as RORgammaT inhibitors and uses thereof” (Merck Sharp & Dohme Corp., priority 2015, dated 2019)

Columns and labels:
[1] = tested on: BclxL gene expression in murine thymus; assay: Murine thymic BclxL gene expression assay; assay type: in vivo, mouse; conditions: female C57BL/6 mice, oral 0.1-30 mg/kg, thymus collected 2 hours after dosing, qPCR; FIG. 3
Description: Animals were euthanized with carbon dioxide (CO2) at 2 hours after dosing, and thymi were collected and immediately placed on ice before processing.
Thymus tissue samples were mashed with syringe plungers in a 48-well, flat-bottom tissue culture plate. Cells were suspended in 1 mL phosphate buffered saline (PBS), and passed through a Falcon 70 μM cell strainer into 50-mL centrifuge tubes. A 200 μL aliquot of cells from each sample were transferred into a 96-well, round-bottom plate. The plate was centrifuged at 1200 rpm and 4° C., flicked to remove supernatant, and the cell pellets were frozen at −80° C. until further processing.
Initial further processing consisted of ribonucleic acid (RNA) isolation and complementary deoxyribonucleic acid (cDNA) synthesis.

RARα = RARα (Homo sapiens (Human), UniProt P10276); assay: Nuclear hormone receptor selectivity assay (GAL4-NHR-LBD luciferase, HEK293); assay type: cell-based
Description: (§1) In the assay system used, an activated GAL4-nuclear hormone receptor (NHR) fusion construct binds to an upstream activation sequence (UAS) and drives a luciferase reporter gene. […]
(§2) HEK293 cells were transfected with GAL4-NHR-LBD construct (pcDNA3.1neo) and the pGL4.31 GAL4-luciferase reporter construct (Promega) and incubated overnight at 37° C. and 5% CO2. After 16-24 hours, cells were harvested and plated at 20 μL (10,000 cells)/well in tissue-culture treated 384 well plate. […] Next, plates are spun briefly and incubated overnight at 37° C. and 5% CO2. […] In agonist mode, test compound was incubated directly with the cells. For receptors that are not constitutively active, a known agonist is also tested as a positive control.
(§3) After 16-24 hours, luciferase activity was measured. Plates and luciferase reagent (e.g. One-Glo® or Dual Glo®; Promega, Madison, Wis.) were brought to room temperature. Next, a 25 μL aliquot of luciferase reagent was added to each well. Plates were spun down briefly and incubated at room temperature for 10 minutes. The luciferase signal was measured on an Envision plate reader (Perkin Elmer) set to the ultra-sensitive luminescence setting.

LXRβ = LXRβ (Homo sapiens (Human), UniProt P55055); assay: as above; assay type: cell-based
Description: as §1, §2, §3

VDR = VDR (Homo sapiens (Human), UniProt P11473); assay: as above; assay type: cell-based
Description: as §1, §2, §3

RORα = RORα (Homo sapiens (Human), UniProt P35398); assay: as above; assay type: cell-based; conditions: antagonist mode
Description: as §1, §2, §3

RORβ = RORβ (Homo sapiens (Human), UniProt Q92753); assay: as above; assay type: cell-based; conditions: antagonist mode
Description: as §1, §2, §3

RXRα = RXRα (Homo sapiens (Human), UniProt P19793); assay: as above; assay type: cell-based
Description: as §1, §2, §3

PPARβ = PPARβ (Homo sapiens (Human), UniProt Q03181); assay: as above; assay type: cell-based
Description: as §1, §2, §3

LXRα = LXRα (Homo sapiens (Human), UniProt Q13133); assay: as above; assay type: cell-based
Description: as §1, §2, §3

FXR = FXR (Homo sapiens (Human), UniProt Q96RI1); assay: as above; assay type: cell-based
Description: as §1, §2, §3

PPARγ = PPARγ (Homo sapiens (Human), UniProt P37231); assay: as above; assay type: cell-based
Description: as §1, §2, §3

PPARα = PPARα (Homo sapiens (Human), UniProt Q07869); assay: as above; assay type: cell-based
Description: as §1, §2, §3

TRα = TRα (Homo sapiens (Human), UniProt P10827); assay: as above; assay type: cell-based
Description: as §1, §2, §3

RARβ = RARβ (Homo sapiens (Human), UniProt P10826); assay: as above; assay type: cell-based
Description: as §1, §2, §3

RARγ = RARγ (Homo sapiens (Human), UniProt P13631); assay: as above; assay type: cell-based
Description: as §1, §2, §3

CAR = CAR (Homo sapiens (Human), UniProt Q14994); assay: as above; assay type: cell-based
Description: as §1, §2, §3

TRβ = TRβ (Homo sapiens (Human), UniProt P10828); assay: as above; assay type: cell-based
Description: as §1, §2, §3

PXR = PXR (Homo sapiens (Human), UniProt O75469); assay: as above; assay type: cell-based; conditions: agonist mode
Description: as §1, §2, §3

[2] = tested on: murine collagen-induced arthritis model; assay: Murine collagen-induced arthritis model; assay type: in vivo, mouse; conditions: female DBA/1J mice, oral 3, 10 or 30 mg/kg twice daily; FIG. 4
Description: Female DBA/1J mice (Jackson Laboratories, 7-8 weeks old) were received and allowed to acclimate for about one week. On the day of immunization, an emulsion was freshly prepared by homogenizing equal volumes of Complete Freund's Adjuvant (CFA, Chondrex #7001) and a collagen type-2 solution (bovine source, Chondrex #20022) using a tissue homogenizer, on ice. A volume of 0.1 mL of this emulsion was injected subcutaneously into the base of the tail of each mouse, which was lightly anesthetized with isoflurane. Mice recovered from anesthesia were allowed food and water ad libitum.
Eighteen days after immunization, the mice were injected intraperitoneally with 40 μg of lipopolysaccaride (LPS, Sigma#L4005) in 0.2 mL saline, in order to help synchronize the disease progression in all animals. Seven days after LPS injection, the mice were assessed for knee joint swelling by measurement of each knee joint using digital calipers and computing total joint circumference. The total knee joint circumference of the 4 knee joints was then used to randomize mice into treatment groups of equal average circumference.
This dosing continued twice daily at 8- and 16-hour intervals for the duration of the study. As a positive control, one group of mice received 25 mg/kg Jak inhibitor (JAKi) tofacitinib once per day. Joints were measured 2-3 times per week.

[3] = antagonist mode, reference agonist at EC80

VDR, sequence (P11473 127-423, species assumed): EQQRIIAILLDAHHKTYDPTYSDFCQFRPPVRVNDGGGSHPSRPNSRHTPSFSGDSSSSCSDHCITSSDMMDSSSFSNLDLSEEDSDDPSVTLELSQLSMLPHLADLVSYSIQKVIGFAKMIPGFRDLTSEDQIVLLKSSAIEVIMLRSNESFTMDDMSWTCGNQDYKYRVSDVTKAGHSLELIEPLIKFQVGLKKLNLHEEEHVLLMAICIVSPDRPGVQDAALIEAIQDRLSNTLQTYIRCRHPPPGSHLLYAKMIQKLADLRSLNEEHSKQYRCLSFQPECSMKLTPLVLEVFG
RARα, sequence (P10276 183-417, species assumed): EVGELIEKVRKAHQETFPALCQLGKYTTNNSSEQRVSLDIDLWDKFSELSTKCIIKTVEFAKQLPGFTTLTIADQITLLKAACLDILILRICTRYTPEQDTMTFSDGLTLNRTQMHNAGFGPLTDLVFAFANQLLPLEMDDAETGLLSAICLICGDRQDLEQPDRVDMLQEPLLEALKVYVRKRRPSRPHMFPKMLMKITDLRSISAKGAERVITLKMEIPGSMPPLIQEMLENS
FXR, sequence (Q96RI1 262-486, species assumed): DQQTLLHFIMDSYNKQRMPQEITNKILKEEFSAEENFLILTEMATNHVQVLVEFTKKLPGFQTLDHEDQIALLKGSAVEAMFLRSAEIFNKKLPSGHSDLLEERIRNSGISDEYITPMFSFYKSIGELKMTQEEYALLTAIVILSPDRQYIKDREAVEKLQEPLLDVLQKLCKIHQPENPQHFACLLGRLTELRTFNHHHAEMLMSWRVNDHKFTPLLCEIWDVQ
RARγ, sequence (P13631 185-419, species assumed): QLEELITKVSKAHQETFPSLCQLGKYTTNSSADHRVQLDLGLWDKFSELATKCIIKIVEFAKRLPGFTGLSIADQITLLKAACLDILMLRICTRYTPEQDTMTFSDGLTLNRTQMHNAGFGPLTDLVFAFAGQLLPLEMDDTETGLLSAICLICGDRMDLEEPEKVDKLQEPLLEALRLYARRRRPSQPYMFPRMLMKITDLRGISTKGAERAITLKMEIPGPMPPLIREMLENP
PPARγ, sequence (P37231 238-503, species assumed): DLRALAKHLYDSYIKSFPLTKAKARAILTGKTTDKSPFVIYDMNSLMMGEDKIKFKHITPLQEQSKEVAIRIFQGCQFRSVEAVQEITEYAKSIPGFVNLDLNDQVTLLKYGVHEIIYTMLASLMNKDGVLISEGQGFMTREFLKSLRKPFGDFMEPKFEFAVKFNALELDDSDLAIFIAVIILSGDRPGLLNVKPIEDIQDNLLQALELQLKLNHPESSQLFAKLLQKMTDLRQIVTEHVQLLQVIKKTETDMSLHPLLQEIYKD
TRα, sequence (P10827 other isoform, or with tags, fused parts or gaps isoform P10827-2): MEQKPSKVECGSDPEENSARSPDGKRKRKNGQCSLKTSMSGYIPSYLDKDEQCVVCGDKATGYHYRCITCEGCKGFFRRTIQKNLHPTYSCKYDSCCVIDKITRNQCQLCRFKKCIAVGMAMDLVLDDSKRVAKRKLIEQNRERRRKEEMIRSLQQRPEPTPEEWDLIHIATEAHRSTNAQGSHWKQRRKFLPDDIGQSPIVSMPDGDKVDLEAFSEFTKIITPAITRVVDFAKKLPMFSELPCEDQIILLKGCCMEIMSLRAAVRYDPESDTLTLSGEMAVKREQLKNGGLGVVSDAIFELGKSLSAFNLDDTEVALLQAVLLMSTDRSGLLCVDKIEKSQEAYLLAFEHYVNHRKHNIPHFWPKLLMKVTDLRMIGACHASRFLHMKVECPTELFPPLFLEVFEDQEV
CAR, sequence (Q14994 109-352): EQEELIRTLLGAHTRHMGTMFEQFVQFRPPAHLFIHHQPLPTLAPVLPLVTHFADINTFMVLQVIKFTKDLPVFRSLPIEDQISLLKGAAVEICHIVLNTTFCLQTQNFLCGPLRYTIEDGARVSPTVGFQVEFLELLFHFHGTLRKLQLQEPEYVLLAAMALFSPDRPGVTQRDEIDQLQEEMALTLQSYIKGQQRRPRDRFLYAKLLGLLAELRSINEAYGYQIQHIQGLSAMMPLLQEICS
LXRα, sequence (Q13133 209-447): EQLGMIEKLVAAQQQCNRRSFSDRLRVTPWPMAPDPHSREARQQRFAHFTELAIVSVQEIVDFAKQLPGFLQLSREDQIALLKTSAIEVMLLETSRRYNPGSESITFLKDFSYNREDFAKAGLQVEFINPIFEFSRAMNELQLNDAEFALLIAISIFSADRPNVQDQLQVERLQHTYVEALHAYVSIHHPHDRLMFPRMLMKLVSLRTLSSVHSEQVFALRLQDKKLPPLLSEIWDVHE
RXRα, sequence (P19793 227-458): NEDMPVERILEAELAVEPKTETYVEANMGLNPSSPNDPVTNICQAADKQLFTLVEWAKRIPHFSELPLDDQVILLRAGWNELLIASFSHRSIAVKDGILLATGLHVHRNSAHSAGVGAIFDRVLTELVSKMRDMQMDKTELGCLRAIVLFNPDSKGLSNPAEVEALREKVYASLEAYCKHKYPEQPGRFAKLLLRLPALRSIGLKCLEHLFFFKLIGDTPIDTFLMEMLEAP
RARβ, sequence (P10826 183-417, species assumed): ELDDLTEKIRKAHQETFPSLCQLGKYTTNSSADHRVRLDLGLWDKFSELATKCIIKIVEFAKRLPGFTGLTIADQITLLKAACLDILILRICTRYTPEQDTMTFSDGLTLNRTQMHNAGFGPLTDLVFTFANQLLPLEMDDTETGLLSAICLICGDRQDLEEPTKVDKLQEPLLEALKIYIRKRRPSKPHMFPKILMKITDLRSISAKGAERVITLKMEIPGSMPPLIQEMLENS
TRβ, sequence (P10828 217-461): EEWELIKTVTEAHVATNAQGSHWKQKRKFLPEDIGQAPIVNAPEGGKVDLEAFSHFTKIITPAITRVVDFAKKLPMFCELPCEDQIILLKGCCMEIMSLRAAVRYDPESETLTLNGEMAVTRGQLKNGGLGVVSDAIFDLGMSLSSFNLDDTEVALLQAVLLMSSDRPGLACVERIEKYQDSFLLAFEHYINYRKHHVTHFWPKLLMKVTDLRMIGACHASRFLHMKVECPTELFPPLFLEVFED
LXRβ, sequence (P55055 222-460): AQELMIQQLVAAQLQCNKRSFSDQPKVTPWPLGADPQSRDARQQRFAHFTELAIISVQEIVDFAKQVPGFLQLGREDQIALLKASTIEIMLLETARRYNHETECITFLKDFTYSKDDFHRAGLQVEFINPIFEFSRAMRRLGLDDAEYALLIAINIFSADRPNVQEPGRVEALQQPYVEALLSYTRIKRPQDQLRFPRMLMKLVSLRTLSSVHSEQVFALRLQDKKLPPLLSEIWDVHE
PPARβ, sequence (Q03181 211-439, species assumed): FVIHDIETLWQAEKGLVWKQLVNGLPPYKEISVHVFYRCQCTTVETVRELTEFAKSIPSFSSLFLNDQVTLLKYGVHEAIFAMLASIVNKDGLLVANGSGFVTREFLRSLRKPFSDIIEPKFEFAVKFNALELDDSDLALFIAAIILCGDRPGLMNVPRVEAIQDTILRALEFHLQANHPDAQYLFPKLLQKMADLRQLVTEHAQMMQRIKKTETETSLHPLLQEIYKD
PPARα, sequence (Q07869 239-466, species assumed): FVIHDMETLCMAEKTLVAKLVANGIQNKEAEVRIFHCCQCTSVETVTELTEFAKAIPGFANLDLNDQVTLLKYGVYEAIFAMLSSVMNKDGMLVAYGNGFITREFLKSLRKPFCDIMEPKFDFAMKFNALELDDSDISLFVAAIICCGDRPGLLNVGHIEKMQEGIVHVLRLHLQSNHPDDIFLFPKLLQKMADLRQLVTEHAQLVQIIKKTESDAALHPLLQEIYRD
PXR, sequence (O75469 146-433, species assumed): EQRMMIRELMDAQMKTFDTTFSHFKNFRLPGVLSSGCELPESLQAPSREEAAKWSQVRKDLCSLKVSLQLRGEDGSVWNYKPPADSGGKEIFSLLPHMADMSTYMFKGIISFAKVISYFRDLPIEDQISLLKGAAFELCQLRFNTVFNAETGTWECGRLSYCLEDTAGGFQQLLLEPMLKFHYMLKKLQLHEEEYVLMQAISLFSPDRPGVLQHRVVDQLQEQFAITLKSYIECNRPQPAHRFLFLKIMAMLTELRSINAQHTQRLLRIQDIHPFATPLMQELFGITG
RORα, sequence (P35398 272-510): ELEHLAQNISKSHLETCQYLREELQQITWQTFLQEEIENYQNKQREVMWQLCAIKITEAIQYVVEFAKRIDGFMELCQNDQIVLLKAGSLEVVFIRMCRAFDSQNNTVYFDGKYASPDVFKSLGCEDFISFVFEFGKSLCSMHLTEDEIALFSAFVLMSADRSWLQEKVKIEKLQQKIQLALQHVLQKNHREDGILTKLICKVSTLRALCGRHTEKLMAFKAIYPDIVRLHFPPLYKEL
RORβ, sequence (Q92753 222-460): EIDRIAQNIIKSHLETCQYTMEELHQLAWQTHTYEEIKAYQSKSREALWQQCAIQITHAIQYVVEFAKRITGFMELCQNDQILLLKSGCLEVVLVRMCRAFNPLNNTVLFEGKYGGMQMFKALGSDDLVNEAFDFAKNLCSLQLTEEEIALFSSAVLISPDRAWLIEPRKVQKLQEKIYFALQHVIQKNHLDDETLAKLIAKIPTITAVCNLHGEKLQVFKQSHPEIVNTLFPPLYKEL

Compound: O=C(O)[C@@H]1CC=C(c2nn(C(=O)c3c(Cl)cccc3C3(C(F)(F)F)CC3)c3c2CC[C@@H](C(=O)N2CCC4(COC4)C2)C3)CC1 [Test Compound]
- expression of BclxL in murine thymus [1]: dose-dependent decrease in the expression of BclxL in murine thymus
- EC50 (RARα; agonist mode): > 10 µM
- IC50 (RARα; [3]): > 10 µM
- EC50 (LXRβ; agonist mode): > 10 µM
- IC50 (LXRβ; [3]): > 10 µM
- EC50 (VDR; agonist mode): > 10 µM
- IC50 (VDR; [3]): > 10 µM
- IC50 (RORα): > 10 µM
- IC50 (RORβ): > 10 µM
- EC50 (RXRα; agonist mode): > 10 µM
- IC50 (RXRα; [3]): > 10 µM
- EC50 (PPARβ; agonist mode): > 10 µM
- IC50 (PPARβ; [3]): > 10 µM
- EC50 (LXRα; agonist mode): > 10 µM
- IC50 (LXRα; [3]): > 10 µM
- EC50 (FXR; agonist mode): > 10 µM
- IC50 (FXR; [3]): > 10 µM
- IC50 (PPARγ; PPARγ, antagonist mode, reference agonist at EC80): > 10 µM
- EC50 (PPARγ; read-out: Agonist Mode EC50): 5.1 µM
- EC50 (PPARα; agonist mode): > 10 µM
- IC50 (PPARα; [3]): > 10 µM
- EC50 (TRα; agonist mode): > 10 µM
- IC50 (TRα; [3]): 16 µM
- EC50 (RARβ; agonist mode): > 10 µM
- IC50 (RARβ; [3]): > 10 µM
- EC50 (RARγ; agonist mode): > 10 µM
- IC50 (RARγ; [3]): > 10 µM
- EC50 (CAR; agonist mode): > 10 µM
- IC50 (CAR; [3]): > 10 µM
- EC50 (TRβ; agonist mode): > 10 µM
- IC50 (TRβ; [3]): > 10 µM
- EC50 (PXR): 8.2 µM
- total joint circumference [2]: dose-dependent decrease in total joint circumference
